Assay results taken from patent publication US20130288956A1, “COMBINED PHARMACEUTICAL COMPOSITION AS ANTIFUNGAL AGENT” (priority 2010, published 2013).
Numbered stars: 1 amine (or outer) side, 2 acyl side, 3 side chain; on linkers, the order of the positions; unused ones are H or OH. Bridge positions count the residues as written; N and C are the ends. Square brackets hold non-standard residues; d marks the D form. Peptide text beside a SMILES is read from it. * marks the point of attachment. hTyr(3S-OH,4S-OH,3'-OSO3H) = N[C@H](C(=O)O)[C@H](O)[C@@H](O)c1ccc(O)c(OS(=O)(=O)O)c1; Orn(4R-OH,5R-OH) = O=C([C@H](C[C@@H](O)[C@@H](O)N[*:3])N[*:1])[*:2]; Pro(3S-OH,4S-Me) = C[C@H]1CN[C@H](C(=O)O)[C@H]1O; X1 = CCCCCOc1ccc(-c2cc(-c3ccc(C(=O)*)cc3)no2)cc1; Gln(3R-OH) = NC(=O)C[C@@H](O)[C@H](N)C(=O)O; Hyp = O=C(O)[C@@H]1C[C@@H](O)CN1

Tests used:
[1] = tested on: A. fumigatus strain IFM52108; test: A. fumigatus respiratory tract infection model; assay type: in vivo, mice
Experimental: (§1) Female DBA/2N mice (age 8 weeks, Charles River Laboratories Japan, Inc.) were subcutaneously administered 200 mg/kg of 5-fluorouracil 5 or 6 days prior to infection in order to put the mice into a compromised state.
(§2) A. fumigatus strain IFM52108 and A. flavus strain IFM50915 were used.
A liquid containing spores of A. fumigatus strain IFM52108 stored at −80° C. was applied to Potato Dextrose agar medium (PDA, Eiken Chemical Co., Ltd.) followed by static culturing for 5 to 7 days at 35° C. and suspending in sterile physiological saline containing 0.05% Tween 80.
The number of spores was counted using a hemocytometer, and the liquid was diluted with sterile physiological saline containing 0.05% Tween 80 to a concentration of 1.2×10^6 cells/mL to 2.5×10^6 cells/mL to obtain an inoculation fungus liquid.
(§3) 50 μl of inoculation fungus liquid were inoculated into the nasal cavities of 9-week-old mice at 0.3×10^5 cells/mouse to 1.25×10^5 cells/mouse under Ketalar anesthesia.
(§4) 0.1 mL to 0.2 mL of each drug solution (dissolved in sterile physiological saline or 5% glucose solution, or dissolved in sterile physiological saline or 5% glucose solution containing 6.5% dimethylsulfoxide and 3.5% Tween 80) was administered to the individual and combination dose groups either into the peritoneal cavity or into the stomach using a gastric cannula corresponding to the administration route of the drug for 3 to 4 days at the rate of 1 to 2 times per day starting 0.5 hours to 1 hour after inoculation of fungus.
(§5) There were 5 to 9 animals in each group.
(§6) Infection protection results were assessed on survival rate 14 days after infection.

C. glabrata = test: In vitro combination effects, checkerboard method by micro dilution (FIC index); assay type: cell-based, Candida glabrata; conditions: C. glabrata (10 strains); combination use with Test Compound 1
Experimental: (§7) A clinically isolated strain retained by the Medical Mycology Research Center of Chiba University (Code No. IFM) and a clinically isolated strain retained by the Life Science Research Center of Gifu University (Code No. E) were used as Candida and Aspergillus strains.
(§8) Fungus liquid obtained by static culturing at 35° C. for 48 hours in Sabouraud Dextrose liquid medium (SDB, Becton, Dickinson and Co.) was diluted with RPMI 1640 medium (Nissui Pharmaceutical Co., Ltd.) containing 0.165 M 3-(N-morpholino)propanesulfonic acid (MOPS) to prepare a fungus liquid having a fungus concentration of 1×10^3 cells/mL to 2×10^3 cells/mL.
(§9) Test Compound 1 (0.0005 μg/mL to 1.56 μg/mL) in the horizontal rows (12 wells) of a 96-well flat-bottom plate, and an antifungal agent in the form of ravuconazole (0.0015 μg/mL to 6.25 μg/mL), fluconazole (0.008 μg/mL to 32 μg/mL), voriconazole (0.0002 μg/mL to 8 μg/mL), micafungin (0.0005 μg/mL to 0.25 μg/mL), caspofungin (0.0005 μg/mL to 1 μg/mL) or amphotericin B (0.008 μg/mL to 8 μg/mL) in the vertical rows (8 wells) of the flat-bottom plate were prepared by diluting so as to blend together using RPMI 1640 medium containing 0.165 M MOPS to obtain a control group, a single Test Compound 1 group, each one of antifungal agents groups and combination groups of Test Compound 1+each one of antifungal agents.
(§10) The fungus liquids prepared in (1) were inoculated into the wells of 96-well flat-bottom plate containing 20 μL/well to 75 μL/well of the diluted test drug liquids prepared in (2) at 80 μL/well to 125 μL/well, followed by aerobically static culturing for 25 hours to 48 hours at 35° C.
(§11) Combination effects of Test Compound 1 and the antifungal agents were measured with the checkerboard method by micro dilution.
(§12) Interaction between both drugs was assessed by calculating the FIC index using the calculation formula indicated below.
(§13) The FIC index was calculated for each combination of antifungal agent concentrations that inhibited fungal growth, and the minimum value of the resulting FIC index was used as a combination FIC index.
(§14) A combination FIC index of 0.5 or less was evaluated as indicating synergistic action, that of 0.5 to 1 or less was evaluated as indicating additive action, and that of 1 to 4 or less was evaluated as indicating indifferent action.
(§15) FIC Index=(MIC value of drug A during combination use/MIC value of drug A when used alone)+(MIC value of drug B during combination use/MIC value of drug B when used alone) (Calculation Formula)

[2] = tested on: A. flavus strain IFM50915; test: A. flavus respiratory tract infection model; assay type: in vivo, mice
Experimental: as §1, §2
A liquid containing spores of A. flavus strain IFM50915 stored at −80° C. was thawed, and the number of spores was counted using a hemocytometer followed by diluting with sterile physiological saline containing 0.05% Tween 80 to a concentration of 0.6×10^6 cells/mL to 1.0×10^6 cells/mL to obtain an inoculation fungus liquid.
as §3, §4, §5, §6

C. tropicalis = test: In vitro combination effects, checkerboard method by micro dilution (FIC index); assay type: cell-based, Candida tropicalis; conditions: C. tropicalis (10 strains); combination use with Test Compound 1
Experimental: as §7, §8, §9, §10, §11, §12, §13, §14, §15

A. fumigatus = test: as above; assay type: cell-based, Aspergillus fumigatus; conditions: A. fumigatus (18 strains)
Experimental: as §7
(§16) An Aspergillus strain stored frozen at −80° C., or spores obtained by static culturing at 35° C. for 1 week in Potato Dextrose agar medium (PDA, Eiken Chemical Co., Ltd.) followed by scraping from the container with a metal loop, was diluted with RPMI 1640 medium containing 0.165 M MOPS to prepare a fungus liquid having a fungus concentration of 0.75×10^4 cells/mL to 1.33×10^4 cells/mL.
as §9, §10, §11, §12, §13, §14, §15

A. flavus = test: as above; assay type: cell-based, Aspergillus flavus; conditions: A. flavus (4 strains), Table 1
Experimental: as §7, §16, §9, §10, §11, §12, §13, §14, §15

C. albicans = test: as above; assay type: cell-based, Candida albicans; conditions: C. albicans (20 strains); combination use with Test Compound 1
Experimental: as §7, §8, §9, §10, §11, §12, §13, §14, §15

[3] = combination with the test compound of the invention

`CCCCCOc1ccc(-c2cc(-c3ccc(C(=O)N[C@H]4C[C@@H](O)[C@@H](O)NC(=O)[C@@H]5[C@@H](O)[C@@H](C)CN5C(=O)[C@H]([C@H](O)CC(N)=O)NC(=O)[C@H]([C@H](O)[C@@H](O)c5ccc(O)c(OS(=O)(=O)O)c5)NC(=O)[C@@H]5C[C@@H](O)CN5C(=O)[C@H]([C@@H](C)O)NC4=O)cc3)no2)cc1` [Micafungin, micafungin] (X1-[Orn(4R-OH,5R-OH)]T[Hyp][hTyr(3S-OH,4S-OH,3'-OSO3H)][Gln(3R-OH)][Pro(3S-OH,4S-Me)]; lactam 1-C) was tested, and the 14-day survival rate ([1]; MCFG 1 mg/kg) was 0%, the 14-day survival rate ([1]; MCFG 2 mg/kg) was 40% and the “Combination effects in mouse Aspergillus fumigatus infection model” value [1, 3] was “synergistic combination effects”. The “Ratio indicating Additive effect of combination use with Test Compound 1” value (from here on “Ratio indicating Additive effect”) (C. glabrata) was 70%, the “Ratio indicating Antagonistic effect of combination use with Test Compound 1” value (shortened to “Ratio indicating Antagonistic effect”) (C. glabrata) was 0% and the “Ratio indicating Indifferent effect of combination use with Test Compound 1” value (“Ratio indicating Indifferent effect” below) (C. glabrata) was 30%. The “Ratio indicating Synergistic effect of combination use with Test Compound 1” value (“Ratio indicating Synergistic effect” for short) (C. glabrata) was 0%, the 14-day survival rate ([2]; MCFG 0.25 mg/kg, Table 5) was 0% and the 14-day survival rate ([2]; MCFG 0.5 mg/kg, Table 4) was 50%. For the same compound, the 14-day survival rate ([2]; MCFG 0.5 mg/kg, Table 5) was 33.3%, the “Combined effects in mouse Aspergillus flavus infection model” value [2, 3] was “synergistic combined effects” and the “Ratio indicating Additive effect” value (C. tropicalis) was 100%. The “Ratio indicating Antagonistic effect” value (C. tropicalis) was 0%, the “Ratio indicating Indifferent effect” value (C. tropicalis) was 0% and the “Ratio indicating Synergistic effect” value (C. tropicalis) was 0%. The “Ratio indicating Additive effect” value (A. fumigatus) was 0%, the “Ratio indicating Antagonistic effect” value (A. fumigatus) was 0% and the “Ratio indicating Indifferent effect” value (A. fumigatus) was 0%. For the same compound, the “Ratio indicating Synergistic effect” value (A. fumigatus) was 100%, the “Ratio indicating Additive effect” value (A. flavus) was 0% and the “Ratio indicating Antagonistic effect” value (A. flavus) was 0%. For the same compound, the “Ratio indicating Indifferent effect” value (A. flavus) was 0%, the “Ratio indicating Synergistic effect” value (A. flavus) was 100% and the “Ratio indicating Additive effect” value (C. albicans) was 80%. For the same compound, the “Ratio indicating Antagonistic effect” value (C. albicans) was 0%, the “Ratio indicating Indifferent effect” value (C. albicans) was 20% and the “Ratio indicating Synergistic effect” value (C. albicans) was 0%.
